# Experimental data published in paper PMC9865397, “Colon-Targeted Trans-Cinnamic Acid Ameliorates Rat Colitis by Activating GPR109A” (Pharmaceutics, 2022).
# Columns and labels:
# RAW 264.7 cells = assay: LPS-stimulated RAW 264.7 cells: IL-10, COX-2 and iNOS levels; format: cell-based, murine
# Procedure: (§1) Changes in levels of the proteins were monitored using Western blotting. Cell lysates and tissue lysates of the distal colon were prepared for Western blot analysis as described previously. To determine the protein concentrations in the lysates, bicinchoninic acid reagent (Thermo Fisher Scientific, Waltham, MA, USA) was used according to the manufacturer’s instructions. SDS-PAGE (10 or 7.5% gels) was used to separate and analyze the proteins in the sample lysates. Anti-cyclooxygenase (COX-2, sc-365374, Santa Cruz Biotechnology, Dallas, TX, USA) and anti-inducible nitric oxide synthase (iNOS) antibodies (sc-7271, Santa Cruz Biotechnology) were used to detect COX-2 and iNOS proteins, respectively. Horseradish peroxidase-conjugated secondary antibodies (Santa Cruz Biotechnology) were used to label the primary antibodies. The protein bands in membranes were visualized using the SuperSignal chemiluminescence substrate (Thermo Fisher Scientific, Waltham, MA, USA). As a loading control, α-tubulin was detected using an anti-α-tubulin antibody (Santa Cruz Biotechnology). Intensity of Western blots was quantified using Image Lab software (version 5.2 build 14, Bio-Rad, Hercules, CA, USA). The mean values (n = 3 for cell experiments, n = 5 for animal experiments) were shown under the blots in figures. Original images of Western blots are shown in Supplementary Data S1.
# DNBS-induced rat colitis = assay: DNBS-induced rat colitis, anti-colitic effects; format: in vivo; details: for colonic damage (CDS) / CINC-3 level in inflamed distal colon / MPO activity in inflamed distal colon / iNOS and COX-2 protein levels in inflamed distal colon: oral once per day for 6 days, tCA 30 mg/kg; for colonic damage (CDS): tCA-GA equivalent to 15 (L) and 30 (H) mg/kg tCA, SSZ 30 mg/kg; for CINC-3 level in inflamed distal colon / MPO activity in inflamed distal colon / iNOS and COX-2 protein levels in inflamed distal colon: tCA-GA L and H
# Procedure: For an animal experiment to evaluate the anti-colitic effects of drugs, six groups (n = 5 rats per group) were made and treated via oral gavage as follows: normal group, 1.0 mL of phosphate buffered saline (pH 7.4, PBS); colitis group, 1.0 mL of PBS; tCA-treated colitis group, tCA (30 mg/kg) in 1.0 mL of PBS; tCA-GA-treated colitis group (L), tCA-GA (28 mg/kg, equivalent to 15 mg/kg of tCA) in 1.0 mL of PBS; tCA-GA-treated colitis group (H), tCA-GA (56 mg/kg, equivalent to 30 mg/kg of tCA) in 1.0 mL of PBS; SSZ-treated colitis group, SSZ (30 mg/kg) in 1.0 mL of PBS. For the other experiment to evaluate GPR109A-dependent anti-colitic effects of tCA-GA, five groups (n = 5 rats per group) were made and treated via oral gavage as follows: normal group, 1.0 mL of PBS; colitis group, 1.0 mL of PBS; tCA-GA-treated colitis group, tCA-GA (28 mg/kg) in 1.0 mL of PBS; tCA-GA + MPZ-treated colitis group, tCA-GA (28 mg/kg) and MPZ (2 mg/kg) in 1.0 mL of PBS; MPZ-treated colitis group, MPZ (2 mg/kg) in 1.0 mL of PBS.
# DNBS-mediated colitis was induced in rats as described previously. Additionally, 3 days after the induction of colitis, the drugs were administered once per day for 6 days as in Section 2.10. The rats were killed to obtain the inflamed distal colon. The colonic damage score (CDS), assessing pathological state in colon tissue and neighbor organs ascribed to DNBS-induced inflammation, was calculated according to the criteria set previously. For histological evaluation, fixed colon tissues were embedded in paraffin, sections with a thickness of 4 μm were cut and stained with hematoxylin and eosin (H&E). The sections were examined under a light microscope (Olympus BX43, Olympus Co., Tokyo, Japan). Myeloperoxidase (MPO) activity was measured as described previously.
# as §1
# The distal colon samples (0.1 g) obtained from rats were minced in a potassium phosphate buffer (pH 6.0, 1.0 mL), homogenized using a T10 basic/IKA homogenizer (ULTRA-TURRAX®, Staufen im Breisgau, Germany), and centrifuged at 10,000× g for 10 min at 4 °C. The levels of CINC-3 and IL-10 were determined in the samples using ELISA kits, according to the manufacturer’s instructions.
# [1] = Distribution coefficient (log D6.8), n-octanol/buffer pH 6.8; format: physicochemical; details: n-octanol/buffer (pH 6.8) system; read-out: distribution coefficient (DC, log D6.8)
# Procedure: (§2) Distribution coefficients (log D6.8) of tCA, tCA-AA, and tCA-GA were measured as described previously. The concentrations of drugs were determined using a UV-Vis spectrophotometer (Shimadzu, Tokyo, Japan) at 277 nm, and log D6.8 was calculated using the equation reported previously. The chemical stabilities of tCA-GA and tCA-AA were analyzed in HCl-NaCl buffer (pH 1.2) and pH 6.8 isotonic phosphate buffer, representing the physiological pH of the stomach and small intestine, respectively. Each drug (0.1 mM) dissolved in the buffers was incubated for at least 12 h, and change in the concentrations of the drugs was monitored using HPLC analysis.
# Caco-2 cell monolayer = Caco-2 cell monolayer permeability assay; format: in vitro ADME, Human; details: 1.2 mM on apical side, up to 24 h, compared with tCA
# Procedure: Caco-2 cells were seeded at 1 × 10^5 cells per insert in Transwell inserts with a pore size of 0.4 μm (SPL Inc., Houston, TX, USA). DMEM, containing 10% FBS and 1% penicillin/streptomycin, was added to the basolateral (well) (1 mL) and apical (insert) compartments (0.2 mL). The cells were grown until the trans-epithelial electrical resistance value (EMD Millipore, Billerica, MA, USA) of the cell monolayer reached 2000 Ω cm^2. After removing the culture medium, tCA and its derivatives (1.2 mM) dissolved in DMEM (0.2 mL) without phenol red and were placed on the apical side of the cell monolayer. At appropriate time intervals, the concentrations of the drugs on the basolateral side filled with DMEM (1.0 mL) were determined using HPLC.
# [2] = Stability in small intestinal contents; format: in vitro ADME; details: rat small intestinal contents, up to 10 h
# Procedure: (§3) Male Sprague–Dawley (SpD) rats (250–260 g) were killed using CO2 gas. The proximal small intestinal, distal small intestinal, and cecal contents were collected separately and suspended in pH 6.8 isotonic phosphate buffer to prepare a 20% w/v suspension. tCA-GA and tCA-AA (10 mM) dissolved in pH 6.8 isotonic phosphate buffer (4 mL) were added to the suspension (4 mL) and incubated at 37 °C. To maintain anaerobic conditions, the collection of cecal contents and incubation of the conjugates in the cecal contents were conducted in a nitrogen gas bag (Sigma-Aldrich, Burlington, MA, USA). At appropriate time intervals, a portion of the mixture (0.5 mL), pipetted using a wide-orifice tip, was centrifuged in a microtube. After acidification (with 1.0 M HCl) of the supernatant (0.3 mL), EA was added and vigorously mixed. The organic layer (0.2 mL) was retrieved and evaporated. The residue, dissolved in the mobile phase (0.2 mL), was filtered and subjected to HPLC analysis. Centrifugation was conducted at 10,000× g for 10 min at 4 °C.
# [3] = Chemical stability in pH 1.2 and pH 6.8 buffers; format: physicochemical; details: incubation for up to 10 h
# Procedure: as §2, with “Each drug (0.1 mM) dissolved in the buffers was incubated for at least 12 h, and change in the concentrations of the drugs was monitored using HPLC analysis.” left out
# [4] = Cleavage test with autoclaved cecal contents; format: in vitro ADME, rat; details: up to 24 h
# [5] = Conversion of conjugates to tCA in cecal contents under nitrogen; format: in vitro ADME; details: rat cecal contents under nitrogen
# Procedure: as §3
# [6] = RAW 264.7, LPS, MPZ 100 µM with tCA
# [7] = tCA-GA 28 mg/kg oral once per day for 6 days (MPZ experiment)
SMILES,colonic damage (CDS) (DNBS-induced rat colitis),CINC-3 level in inflamed distal colon (DNBS-induced rat colitis),MPO activity in inflamed distal colon (DNBS-induced rat colitis),iNOS and COX-2 protein levels in inflamed distal colon (DNBS-induced rat colitis),logD [1],permeation through the Caco-2 cell monolayer (Caco-2 cell monolayer),change in concentration in small intestinal contents [2],"change in concentration in buffers (pH 1.2, 6.8) [3]",stability in autoclaved cecal contents [4],also measured
"C[N+]1(C)CCCC(OC(=O)C(O)(c2ccccc2)c2ccccc2)C1 (centres unmarked) [MPZ, mepenzolate, reference compound]",–,–,–,–,–,–,–,–,–,"effect of MPZ on tCA suppression of COX-2 and iNOS (RAW 264.7 cells; [6]): undermined the suppressive effects of tCA; effect of MPZ on tCA-increased IL-10 level (RAW 264.7 cells; [6]): significantly suppressed by MPZ; inflammatory state after single treatment (DNBS-induced rat colitis; MPZ 2 mg/kg alone, oral, 6 days): inflammatory state similar to that induced by the DNBS control; effect of co-administered MPZ on colonic damage and inflammation (DNBS-induced rat colitis; MPZ 2 mg/kg co-administered with tCA-GA 28 mg/kg, oral, 6 days): significantly compromised the beneficial effects of tCA-GA; effect of co-administered MPZ on IL-10 level in inflamed colon (DNBS-induced rat colitis; MPZ 2 mg/kg combined with tCA-GA 28 mg/kg, oral, 6 days): significantly suppressed the increase in the levels of IL-10"
"O=C(O)c1cc(/N=N/c2ccc(S(=O)(=O)Nc3ccccn3)cc2)ccc1O [SSZ, sulfasalazine, reference compound]",tCA was as effective as SSZ,–,–,–,–,–,–,–,–,–
"O=C(O)/C=C/c1ccccc1 [tCA, trans-cinnamic acid]",ameliorated colonic damage,lowered,lowered MPO activity,lowered,–,–,–,–,–,"LPS-induced COX-2 and iNOS protein levels (RAW 264.7 cells; RAW 264.7, LPS 24 h, tCA pretreatment 1 h): reduced the levels of COX-2 and iNOS; IL-10 level in cell culture supernatant (RAW 264.7 cells; RAW 264.7, LPS, tCA 2 mM / 5 mM): increased the level of IL-10"
"O=C(O)C[C@H](NC(=O)/C=C/c1ccccc1)C(=O)O [tCA-AA, N-Cinnamoyl-L-Aspartic Acid]",–,–,–,–,-0.61,substantially delayed the permeation of tCA through the cell monolayer,no notable changes in the concentrations,no notable changes in the concentrations,remained intact for up to 24 h,–
"O=C(O)CC[C@H](NC(=O)/C=C/c1ccccc1)C(=O)O [tCA-GA, N-Cinnamoyl-L-Glutamic Acid]",significantly more effective than tCA at mitigating pathological changes,lowered,lowered MPO activity,lowered,-0.98,substantially delayed the permeation of tCA through the cell monolayer,no notable changes in the concentrations,no notable changes in the concentrations,remained intact for up to 24 h,"H&E staining, mucosal layer of distal colon (DNBS-induced rat colitis; both doses of tCA-GA, greater than tCA and SSZ): recovered the mucosal layer of the distal colon; IL-10 level in inflamed colon (DNBS-induced rat colitis; first experiment (Supplementary Data S6), more effective than oral tCA): increased the levels of IL-10 in the inflamed colon; IL-10 level in inflamed colon (DNBS-induced rat colitis; [7]): increased the levels of IL-10 in the inflamed colon; colonic damage incl. colon length shortening (DNBS-induced rat colitis; [7]): substantially alleviates colonic damage; colonic inflammation (MPO activity, CINC-3, iNOS, COX-2 in distal colon) (DNBS-induced rat colitis; [7]): markedly suppressed; conversion rate to tCA [5]: higher than that of tCA-AA to tCA"
